US10426758B2, “Sibiriline derivatives for use for preventing and/or treating disorders associated with cellular necroptosis” (Institut National de la Sante et de la Recherche Medicale …, priority 2015, dated 2019)

Experiments:
[1] = system: Jurkat Fadd deficient cells; test: Delayed treatment of Sib on TNF-induced necroptotic cell-death; type: cell-based, human; settings: 10 μM added 1 h, 2 h, 3 h or 4 h after TNF-α (10 ng/ml); cell death after 24 h
Description: Jurkat Fadd deficient cells are treated with TNF-α (10 ng/ml) then treated with Sib (10 μM) at 1 h, 2 h, 3 h or 4 h after adding TNF-α. % of cell death is determined after 24 h and calculated by a FACS analysis of Propidium Iodide-stained nuclei. Quantitative analysis of three independent experiments with means±SD.

[2] = system: Jurkat FADD-deficient cells (Jurkat FADD−/−); test: Anti-necroptotic effect, Jurkat FADD-deficient cells, TNF, FACS of propidium iodide-stained nuclei; type: cell-based, human
Description: (§1) L929 cells, L929AsFas cells, Jurkat FADD-deficient cells (Jurkat FADD^−/−), U937 cells are pretreated for 1 h with increased concentrations of Sib (0, 5, 10, 20 μM) and then treated respectively with TNF-α (10 ng/ml)+zVAD (20 μM), FasL (200 ng/ml)+zVAD (20 μM), TNF-α (10 ng/ml), TRAIL (200 ng/ml)+zVAD (30 μM) or TRAIL (200 ng/ml)+zVAD (30 μM)+CHX (1 μg/ml). % of cell death is determined after 24 h and calculated by a FACS analysis of Propidium Iodide-stained nuclei. In each case, the EC50 is determined as well as the % of rescue from cell death.

[3] = system: cytochrome P450 CYP1A enzymes in HepG2 cells; test: Ethoxyresorufin O-deethylase (EROD) activity in HepG2 cells; type: in vitro ADME, human; settings: 10 μM, 24 hours
Description: EROD activity corresponds to the O-deethylation of ethoxyresorufin and is mainly supported by cytochrome P450 CYP1A enzymes in HepG2 cells. Induction of CYP1A is mediated through the binding of xenobiotics to a cytosolic aryl hydrocarbon receptor AhR.
Human liver cancer cell lines HepG2 were treated with 10 μM of Sib, Nec-1 or Nec-1s for 24 hours. After treatment, HepG2 cells were incubated in PBS containing 5 mM ethoxyresorufin and kinetic reading was performed at 37° C. with spectrofluorometer (SpectraMax Gemini SX) over a 15 min period.

[4] = system: Jurkat FADD-deficient I 2.1 cell line; test: Cell-based screening: TNF-α-induced necroptosis in Jurkat FADD-deficient cells, MTS viability assay; set-up: species or system human
Source text: TNF-α can induce necroptosis in Jurkat cells (human T lymphocytes) when FADD is deleted. This model was used to screen various libraries of chemical compounds for characterization of new inhibitors of cellular necroptosis. Details on this cell-based assay can be found in (Miao and Degterev, Methods Mol. Biol. 2009, 559, 79-93). The Jurkat FADD-deficient I 2.1 cell line used was purchased from ATCC and was maintained in RPMI 1640 medium (Gibco) containing Glutamax and 15% fetal calf serum (Life Technology). Necroptosis was induced by addition of 10 ng/ml of human recombinant TNF-α (Life Technology). Necrostatin-1 (Nec-1, Enzo Life Sciences) was used as model necroptosis inhibitor. Cells were maintained in 75 cm^2 flask and passed every 2 or 3 days. Chemical collections analysed were formatted in 96-well plates with 80 molecules per plates at 10 mM in 100% DMSO. For each collection plate, 2 cell plates were seeded (one necroptosis-induced with TNF-α and the other without TNF-α). Cells were seeded at 20000 cells/well, in 40 μl of medium, in a 96-well clear, flat bottom plate (CytoOne, Starlab) before treatment. Then, 40 μl of medium with or without TNF-α at 25 ng/ml were added to all wells in the corresponding plate. Immediately after TNF-α addition, 20 μl of diluted compound at 50 μM were added to the plates. Final concentration of each chemical compound was 10 μM at 0.1% DMSO. Four positives (Nec-1 at 10 μM final) and four negative (DMSO) controls were used in each plate to validate the assay. Cells were incubated at 37° C., 5% CO2 for 24 hours before performing MTS viability assay, described hereafter. Compounds were diluted before to treat cells. Liquid handling was performed using the Nimbus Microlab liquid handler (Hamilton Robotics) under microbiological safety workbench. The 10 mM compounds were diluted at 50 μM directly in cell medium.

U937 cells = test: Anti-necroptotic effect, U937 cells, TRAIL + zVAD + CHX, FACS of propidium iodide-stained nuclei; type: cell-based
Description: as §1

L929 cells = test: Anti-necroptotic effect, L929 cells, TNF + zVAD, FACS of propidium iodide-stained nuclei; type: cell-based
Description: as §1

Oc1ccc(-c2cc3cccnc3[nH]2)cc1 [compound 2, 4-(1H-pyrrolo[2,3-b]pyridin-2-yl)phenol]
effect on necroptotic cell-death with delayed treatment [1]: inhibits the necroptotic cell-death
EC50 ([2]; Homo sapiens, 1 h pretreatment, cell death after 24 h): 1200 nM
% Rescue ([2]; rescue from cell death, 24 h): 90%
induction of EROD activity [3]: do not induce EROD activity
EC50 ([4]; Homo sapiens, Jurkat, necroptosis induced by 10 ng/ml TNF-α, 24 hours, MTS viability): 1300 nM
inhibition of necroptosis induced by TNF-α (figure legend) ([4]; human T lymphocyte, Jurkat FADD deficient cell line): dose-dependent inhibition
EC50 (U937 cells; Homo sapiens, U-937, 1 h pretreatment, cell death after 24 h): 20000 nM
% Rescue (U937 cells; rescue from cell death, 24 h): 50%
EC50 (L929 cells; Mus musculus, 1 h pretreatment, cell death after 24 h): 3000 nM
% Rescue (L929 cells; rescue from cell death, 24 h): 80%
